{"source": "patent US20050220899A1", "about": "“Use of cisplatin in combination with folic acid for increasing cisplatin efficacy” (priority 2002, published 2005)", "system": "mesothelioma", "test": "Treatment of human mesothelioma patients with cisplatin with or without folic acid", "format": "in vivo", "details": "human patients exhibiting mesothelioma; 75-120 mg/m^2 of cisplatin", "data": [{"molecule": "N.N.[Cl][Pt][Cl]", "note": "[cisplatin, cis-diamminedichloroplatinum]", "values": [{"measurement": "median survival time", "result": 7.2, "unit": "months"}, {"measurement": "response rate", "result": 8.5, "unit": "%"}]}]}
